According to patent US5057493A, “Novel antibiotics R106” (priority 1988, dated 1991):
Starred links: 1 amine or outer side, 2 acyl side, 3 side chain; linkers in the order of their positions; H or OH if unused. Non-standard residues stand in square brackets, D forms with d. Residues, ends and D or L forms follow the SMILES beside them. ξ: configuration not given here. X2 = CN(C(C(=O)[*:2])C(O)c1ccccc1)[*:1]; X4 = CC(C(=O)O)C(C(=O)[*:2])N(C)[*:1]; ξNMeVal(3-OH) = CNC(C(=O)O)C(C)(C)O; X3 = C=C(C)C(C(=O)[*:2])N(C)[*:1]; X5 = CC(CO)C(C(=O)[*:2])N(C)[*:1]; X6 = CC(C)=C(C(=O)[*:2])N(C)[*:1]; NMeF = CN[CH](Cc1ccccc1)C(=O)O; X1 = CCC(C)C(O[*:1])C(=O)[*:2]; NMeV = CN[CH](C(=O)O)C(C)C; Hiv = CC(C)[CH](O)C(=O)O

Experiments:
[1] = system: Candida kefyr TIMM 0301; assay: MIC by agar dilution method, casitone agar; format: cell-based; conditions: Table 5
Description: (§1) The antibiotics R106 of the present invention are active against various fungi including pathogenic fungi. The minimum inhibitory concentration (MIC) of each antibiotic against various fungi was determined by the agar dilution method using casitone agar medium (2.0% glucose, 0.9% bacto-casitone, 1.0% yeast extract, 0.1% KH2 PO4, 0.1% Na2 HPO4, 1.0% sodium citrate, 2.0% agar: concentrations are all by w/v).

[2] = system: Candida albicans TIMM 0171; assay: MIC by agar dilution method, casitone agar; format: cell-based; conditions: Table 5
Description: as §1

[3] = system: Candida albicans TIMM 1768; assay: MIC by agar dilution method, casitone agar; format: cell-based; conditions: Table 5
Description: as §1

[4] = system: Candida albicans TIMM 0136; assay: MIC by agar dilution method, casitone agar; format: cell-based; conditions: Table 5
Description: as §1

[5] = system: Candida glabrata TIMM 1062; assay: MIC by agar dilution method, casitone agar; format: cell-based; conditions: Table 5
Description: as §1, with “The” for “The antibiotics R106 of the present invention are active against various fungi including pathogenic fungi. The”
(§2) Each minimum growth inhibitory concentration was determined after culturing at 27° C. for 4 days.

[6] = system: Cryptococcus neoformans TIMM 0354; assay: MIC by agar dilution method, casitone agar; format: cell-based; conditions: Table 5
Description: as §1, with “The” for “The antibiotics R106 of the present invention are active against various fungi including pathogenic fungi. The”
as §2

[7] = 50% lethal dose (LD50) in mice; format: in vivo
Description: All of the antibiotics R106 show low toxicity. The results of 50% lethal dose (LD50) obtained when each of representative compounds of the present invention was given to mice intravenously, intraperitoneally and orally are shown in Table 7.

SMILES | minimum inhibitory concentration (MIC) [1] | minimum inhibitory concentration (MIC) [2] | minimum inhibitory concentration (MIC) [3] | minimum inhibitory concentration (MIC) [4] | minimum inhibitory concentration (MIC) [5] | minimum inhibitory concentration (MIC) [6] | LD50 ([7]; i.p.) [mg/kg] | LD50 ([7]; i.v.) [mg/kg] | LD50 ([7]; p.o.) [mg/kg]
CCC(C)C1NC(=O)C2CCCN2C(=O)C(Cc2ccccc2)N(C)C(=O)C(Cc2ccccc2)NC(=O)C(C(C)C)N(C)C(=O)C(C(C)CC)OC(=O)C(C(O)c2ccccc2)N(C)C(=O)C(CC(C)C)NC(=O)C(C(C)C)N(C)C1=O (stereo not drawn) [Compound 15] (cyclo([X2][X1][NMeV]F[NMeF]PI[NMeV]L); configuration not given here) | > 25 | 25 | 25 | 12.5 | > 25 | 25 |  |  | 
CCC(C)C1OC(=O)C(C(C)(C)O)N(C)C(=O)C(CC(C)C)NC(=O)C(C(C)C)N(C)C(=O)C(C(C)C)NC(=O)C2CCCN2C(=O)C(Cc2ccccc2)N(C)C(=O)C(Cc2ccccc2)NC(=O)C(C(C)C)N(C)C1=O (stereo not drawn) [Compound 3] (cyclo([ξNMeVal(3-OH)][X1][NMeV]F[NMeF]PV[NMeV]L); configuration not given here) | 0.20 | 0.10 | 1.56 | 0.10 | 0.20 | 1.56 |  |  | 
CCC(C)C1OC(=O)C(C(C)(C)O)N(C)C(=O)C(CC(C)C)NC(=O)C(C(C)C)N(C)C(=O)C(CC(C)C)NC(=O)C2CCCN2C(=O)C(Cc2ccccc2)N(C)C(=O)C(Cc2ccccc2)NC(=O)C(C(C)C)N(C)C1=O (stereo not drawn) [Compound 9] (cyclo([ξNMeVal(3-OH)][X1][NMeV]F[NMeF]PL[NMeV]L); configuration not given here) | 0.20 | ≤ 0.05 | 0.20 | ≤ 0.05 | 0.39 | 25 | > 200 | > 100 | > 200
CCC(C)C1NC(=O)C2CCCN2C(=O)C(Cc2ccccc2)N(C)C(=O)C(Cc2ccccc2)NC(=O)C(C(C)C)N(C)C(=O)C(C(C)CC)OC(=O)C(=C(C)C)N(C)C(=O)C(CC(C)C)NC(=O)C(C(C)C)N(C)C1=O (stereo not drawn) [Compound 18] (cyclo([X6][X1][NMeV]F[NMeF]PI[NMeV]L); configuration not given here) | 25 | 3.12 | 25 | 6.25 | > 25 | > 25 |  |  | 
CCC(C)C1NC(=O)C2CCCN2C(=O)C(Cc2ccccc2)N(C)C(=O)C(Cc2ccccc2)NC(=O)C(C(C)C)N(C)C(=O)C(C(C)CC)OC(=O)C(C(C)CO)N(C)C(=O)C(CC(C)C)NC(=O)C(C(C)C)N(C)C1=O (stereo not drawn) [Compound 4] (cyclo([X5][X1][NMeV]F[NMeF]PI[NMeV]L); configuration not given here) | 0.78 | 0.10 | 0.39 | 0.20 | 1.56 | 25 |  |  | 
CCC(C)C1NC(=O)C2CCCN2C(=O)C(Cc2ccccc2)N(C)C(=O)C(Cc2ccccc2)NC(=O)C(C(C)C)N(C)C(=O)C(C(C)CC)OC(=O)C(C(C)C(=O)O)N(C)C(=O)C(CC(C)C)NC(=O)C(C(C)C)N(C)C1=O (stereo not drawn) [Compound 10] (cyclo([X4][X1][NMeV]F[NMeF]PI[NMeV]L); configuration not given here) | 3.12 | 0.78 | 12.5 | 0.78 | 3.12 | 25 |  |  | 
CCC(C)C1NC(=O)C2CCCN2C(=O)C(Cc2ccccc2)N(C)C(=O)C(Cc2ccccc2)NC(=O)C(C(C)C)N(C)C(=O)C(C(C)CC)OC(=O)C(C(C)(C)O)N(C)C(=O)C(CC(C)C)NC(=O)C(C(C)C)NC1=O (stereo not drawn) [Compound 6] (cyclo([ξNMeVal(3-OH)][X1][NMeV]F[NMeF]PIVL); configuration not given here) | 0.39 | 0.39 | 0.39 | 0.78 | 1.56 | 25 |  |  | 
CCC(C)C1NC(=O)C2CCCN2C(=O)C(Cc2ccccc2)N(C)C(=O)C(Cc2ccccc2)NC(=O)C(C(C)C)N(C)C(=O)C(C(C)CC)OC(=O)C(C(C)C)N(C)C(=O)C(CC(C)C)NC(=O)C(C(C)C)NC1=O (stereo not drawn) [Compound 16] (cyclo([X1][NMeV]F[NMeF]PIVL[NMeV]); configuration not given here) | 3.12 | 1.56 | 25 | 3.12 | > 25 | > 25 |  |  | 
C=C(C)C1C(=O)OC(C(C)CC)C(=O)N(C)C(C(C)C)C(=O)NC(Cc2ccccc2)C(=O)N(C)C(Cc2ccccc2)C(=O)N2CCCC2C(=O)NC(C(C)CC)C(=O)N(C)C(C(C)C)C(=O)NC(CC(C)C)C(=O)N1C (stereo not drawn) [Compound 14] (cyclo([X3][X1][NMeV]F[NMeF]PI[NMeV]L); configuration not given here) | 6.25 | 1.56 | 12.5 | 1.56 | 12.5 | > 25 |  |  | 
CCC(C)C1NC(=O)C2CCCN2C(=O)C(Cc2ccccc2)N(C)C(=O)C(Cc2ccccc2)NC(=O)C(C(C)C)N(C)C(=O)C(C(C)CC)OC(=O)C(Cc2ccccc2)N(C)C(=O)C(CC(C)C)NC(=O)C(C(C)C)N(C)C1=O (stereo not drawn) [Compound 17] (cyclo([X1][NMeV]F[NMeF]PI[NMeV]L[NMeF]); configuration not given here) | > 25 | 25 | > 25 | 12.5 | > 25 | > 25 |  |  | 
CCC(C)C1NC(=O)C2CCCN2C(=O)C(Cc2ccccc2)N(C)C(=O)C(Cc2ccccc2)NC(=O)C(C(C)C)N(C)C(=O)C(C(C)CC)OC(=O)C(C(C)C)N(C)C(=O)C(CC(C)C)NC(=O)C(C(C)C)N(C)C1=O (stereo not drawn) [Compound 7] (cyclo([X1][NMeV]F[NMeF]PI[NMeV]L[NMeV]); configuration not given here) | 25 | 1.56 | 3.12 | 3.12 | > 25 | > 25 | > 200 | > 100 | > 200
CCC(C)C1NC(=O)C2CCCN2C(=O)C(Cc2ccccc2)N(C)C(=O)C(Cc2ccccc2)NC(=O)C(C(C)C)N(C)C(=O)C(C(C)C)OC(=O)C(C(C)C)N(C)C(=O)C(CC(C)C)NC(=O)C(C(C)C)N(C)C1=O (stereo not drawn) [Compound 11] (cyclo(F[NMeF]PI[NMeV]L[NMeV][Hiv][NMeV]); configuration not given here) | 6.25 | 1.56 | 1.56 | 1.56 | > 25 | > 25 |  |  | 
CCC(C)C1OC(=O)C(C(C)C)N(C)C(=O)C(CC(C)C)NC(=O)C(C(C)C)N(C)C(=O)C(C(C)C)NC(=O)C2CCCN2C(=O)C(Cc2ccccc2)N(C)C(=O)C(Cc2ccccc2)NC(=O)C(C(C)C)N(C)C1=O (stereo not drawn) [Compound 12] (cyclo([X1][NMeV]F[NMeF]PV[NMeV]L[NMeV]); configuration not given here) | 12.5 | 6.25 | 25 | 6.25 | > 25 | > 25 |  |  | 
CCC(C)C1NC(=O)C2CCCN2C(=O)C(Cc2ccccc2)NC(=O)C(Cc2ccccc2)NC(=O)C(C(C)C)N(C)C(=O)C(C(C)CC)OC(=O)C(C(C)C)N(C)C(=O)C(CC(C)C)NC(=O)C(C(C)C)N(C)C1=O (stereo not drawn) [Compound 13] (cyclo([X1][NMeV]FFPI[NMeV]L[NMeV]); configuration not given here) | 25 | 12.5 | 12.5 | 6.25 | > 25 | > 25 |  |  | 
CCC(C)C1NC(=O)C2CCCN2C(=O)C(Cc2ccccc2)N(C)C(=O)C(Cc2ccccc2)NC(=O)C(C(C)C)N(C)C(=O)C(C(C)CC)OC(=O)C(C(C)C)NC(=O)C(CC(C)C)NC(=O)C(C(C)C)N(C)C1=O (stereo not drawn) [Compound 8] (cyclo([X1][NMeV]F[NMeF]PI[NMeV]LV); configuration not given here) | > 25 | 1.56 | 12.5 | 1.56 | > 25 | > 25 |  |  | 
